Measurements as given in US12721985B2, “Microneedle patch system for transdermal drug delivery” (INDUSTRY-ACADEMIC COOPERATION FOUNDATION GYEONGSANG …, priority 2021, dated 2026).

Assay: Drug blood concentration pattern in rats after donepezil administration
Details: rat, in vivo
Experimental: More specifically, 3 mg/kg of donepezil was administered orally, 1 mg/kg of donepezil was administered subcutaneously, or 43 mg/kg of donepezil was administered using the microneedle patch prepared in the above example to rats, and the drug blood concentration patterns were compared.
Next, rats were administered donepezil at different concentrations of 43 mg/kg, 80 mg/kg, and 125 mg/kg using the microneedle patch prepared in the above example, respectively, and the drug blood concentration patterns were compared.
Next, after administering 80 mg/kg of donepezil to rats using the microneedle patch prepared in the above example, the drug blood concentration pattern was compared between the case where the needle was removed in 1 hour and the case where the needle was applied for 3 days.

## COc1cc2c(cc1OC)C(=O)C(CC1CCN(Cc3ccccc3)CC1)C2 (centres unmarked) [donepezil]
po, 3 mg/kg
  time in which drug blood concentration was very low: about 1 day
sc, 1 mg/kg
  time in which drug blood concentration was very low: about 1 day
